Test results reported in patent US20220175756A1, “APPLICATION OF COMBINATION OF QUINOLINE DERIVATIVE AND IMMUNOMODULATOR IN PREPARATION OF ANTITUMOR DRUGS” (CHONGQING PHARMACEUTICAL INDUSTRIAL RESEARCH INSTITUTE CO., …, priority 2019, published 2022).

Tested on: CT26 mouse colon carcinoma cell strain
Assay: In vivo anti-tumor activity in mouse CT26 colon tumor model
Method: The experimental purposes was to investigate the in vivo anti-tumor effect of the combination of the test compound with a mouse anti-PD-1 antibody against the mouse colon cancer in CT26 tumor model.
Female Balb/c mice were subcutaneously inoculated with CT26 mouse colon carcinoma cell strain, and randomly grouped based on their body weight, after inoculation. And, they were administered as follows.
To the first group (a control group), the administration was started in the afternoon of the day of vaccination in a way that vehicle 1 (10% DMSO+10% Solutol+80% DDH2O) was administered intragastrically twice a day at a dosage of 0.1 mL/10 g body weight each time, and when the tumor had grown to a volume of about 60 mm^3 after the inoculation, it started to do administration in a way that vehicle 2 (DPBS) was given twice a week through intraperitoneal injection at a dosage of 0.1 mL/10 g body weight at each time.
To the second group, when the tumor had grown to a volume of about 60 mm^3 after the inoculation, it started to do administration in a way that anti-mouse PD-1 antibody (RMP1-14, supplied by BioXcell) was given through intraperitoneal injection twice a week at a dosage of 3 mg/kg body weight at each time. […]
During the experiment, the mice were weighed three times a week, and after the tumor formed, the tumor volume was measured three times a week at each time when the body weight was measured, and calculated following the equation: length×width^2/2. Tumor proliferation rate was calculated following the equation: Tumor proliferation rate=Tumor volume in the treatment group/Tumor volume in the control group×100%.
The differences between groups were statistically analyzed by Student's t-test, and p<0.05 was considered to be a significant difference.

COc1cc2nccc(Oc3ccc(NC(=O)NC4CC4)c(Cl)c3F)c2cc1C(N)=O [Example 1]
Tumor proliferation rate (day 25, Example 1 10 mg/kg intragastrically once a day in combination with anti-mouse PD-1 antibody RMP1-14 3 mg/kg i.p. twice a week, female Balb/c mice, p<0.01): 15.38% | Anti-tumor activity in combination with PD-1 antibody (in words) (mouse CT26 tumor model, combination with PD-1 antibody): significant anti-tumor activity | Effect on anti-tumor effect of PD-1 antibody (in words) (tumor volumes on day 25, combination group vs single antibody group, p<0.05): significantly enhanced anti-tumor effect on PD-1 antibody
